Data set [1] is described as follows: Log P, shake-flask octanol-water partition. The class given is physicochemical. As to conditions: n-octanol / PBS (pH=7.4), error = standard deviation. The protocol:
Log P measurements were performed with The shake-flask method based on compound partitioning between n-octanol and PBS (pH=7.4) layers. Octanol (saturated with PBS) and PBS (saturated with octanol) was obtained by vigorous mixing for one hour followed by layer separation in a separatory funnel over 24 hours. For Gal-Cu(gtsm): 500 μL of standard solutions were made with 100, 50, 20, 10, and 5 μM of Gal-Cu(gtsm) dissolved in PBS-saturated octanol. 50 mM stock solution in DMSO was diluted to 100 μM final concentration with 490/10, 480/20, and 460/40 μL of saturated octanol/PBS. For Cu(gtsm): 500 μL of standard solutions were made with 100, 50, 20, 10, and 5 μM of […]. 50 mM stock solution in DMSO was diluted to 100 μM final concentration with 10/490, […], and 50/450 μL of saturated octanol/PBS. All standards and samples were vortexed vigorously in 1.7 mL microcentrifuge tubes for 60 seconds, then spun down at 12,000 g for 2 mins in a microcentrifuge. 200 μL of each standard and sample were added to a clear 96-well plate, and the blank-subtracted absorbance at 470 nm was read in a Synergy M2 plate reader. All standards and samples were measured in duplicate. Log P values were calculated from the subsequent partition coefficients and averaged across the three partition conditions to obtain the final log P value. […]

A further data set concerns HepG2 cells. The data set is described as follows: Cell viability, propidium iodide staining, HepG2. In kind it is cell-based. As to conditions: 500 μM dose, HepG2, three hours. The protocol:
Flow cytometry experiments were performed with BD LSR Fortessa Cell Analyzer in the College of Chemistry at UC Berkeley. Gains were set to include live cells based on viability experiments using propidium iodide, with dead cells via 0.1% saponin treatment as a negative control. The standard PE-A (570 nm longpass, 586/15 nm bandpass) was used. For each biological replicate, three technical replicates of 5,000 (HepG2) or 10,000 cells (HEK 293T) were counted. Flow cytometry data was processed using FlowJo (FlowJo, LLC).
HEK 293T cells were plated in 6-well plates at 60-80% confluency. After ionophore treatment at the given concentration for three hours, cells were washed with DMEM and incubated with 3 μM propidium iodide in PBS for 15 minutes, then rinsed in PBS. HEK 293T cells were mechanically removed via pipetting off the plate with 1 mL PBS and filtered through a 35 μm nylon mesh into 5 mL culture tubes for analysis. HepG2 cells were plated in 12-well plates at 60-80% confluency. […]

A further data set deals with CTR1. Put plainly: Western blot of liver lysates, CTR1. The class given is in vivo, mouse. The following applies: 6 and 24 hour timepoints. The protocol: Frozen mouse livers were minced into 50 mg samples on dry ice and homogenized in ice-cold RIPA buffer (25 mM Tris.HCl pH 7.6, 150 mM NaCl, 1% NP-40, 1% sodium deoxycholate, 0.1% SDS) containing protease inhibitor cocktail with EDTA (Roche) at 100 mg/mL using a hand-held mechanical homogenizer. Homogenates were incubated on ice for 30 min and centrifuged at 12,000×g for 20 min at 4° C. The soluble protein lysates were collected from underneath the upper lipid layer with a pipette and transferred to new tubes. Protein concentration was determined using a detergent-compatible Bradford Assay (Pierce).
Protein lysates were denatured in NuPAGE lithium dodecyl sulfate sample buffer (Invitrogen) containing 10% v/v β-mercaptoethanol as a reducing agent. […] The membranes were washed 5 times for 5 minutes in TBST, then visualized using enhanced chemiluminescence (Western Lighting Plus for visualizing CCS and ATP7B, Perkin Elmer; Western Clarity Max for visualizing CTR1 and MT, Bio-Rad) recorded on a BioRad GelDoc imaging station. β-actin was probed to determine equal loading using anti-β-actin (sc-69879, Santa Cruz Biotechnology) and AlexaFluor 647-conjugated anti-mouse IgG (A31571, Molecular Probes) antibodies at 1:5000 and 1:2500 dilutions, respectively, with visualization using fluorescence recorded on a BioRad GelDoc imaging station.
In general terms: A western blot detects proteins with antibodies after separation by electrophoresis.

The conditions of data set [2]: mouse, in vivo.
Description: FVB-luc+ mice were heavily anesthetized and blood was collected via cardiac puncture. Mice were immediately euthanized by cervical dislocation. Tissues were harvested, rinsed twice with DPBS, snap-frozen under liquid nitrogen, and placed on dry ice in cryotubes and stored at −80° C. until analysis. Serum was isolated by allowing blood samples to coagulate for 1 hour at room temperature, centrifuging at 1,500 g for 15 minutes at 4° C., then collecting the serum supernatant. Samples were aliquoted, snap-frozen, and stored at −80° C. until analysis.
20-100 mg portions of the harvested tissues were digested in concentrated nitric acid (100 mg tissue/mL HNO3, BDH Aristar Ultra) at 95° C. for 2 h in 1.5 mL tubes (Sarstedt) with small holes poked in the caps with an 18G needle. After overnight incubation at room temperature, samples were diluted into freshly prepared 2% nitric acid and doped with a gallium internal standard (Inorganic Ventures, diluted from 1 ppm in 2% nitric acid to a 20 ppb final concentration). The copper content was determined by measuring ^63Cu using a Thermo Fisher iCAP-Qc ICP-MS in Kinetic Energy Discrimination (KED) mode. Measurements were normalized to a standard curve of known copper concentrations doped with 20 ppb Ga. The standard curve was diluted from CMS-5 (Inorganic Ventures).

One may read the log P as a log measure of how a compound divides between an organic and an aqueous phase. In the case of `CNC1=N[N+]2=CC=[N+]3N=C(NCCOCCOCCOC4OC(CO)C(O)C(O)C4NC(C)=O)[S][Cu-2]23[S]1` (centres unmarked) [Gal-Cu(gtsm)], the lipophilicity (log P) in data set [1] is recorded as −1.03±0.10. The “ionophore toxicity (cell viability)” value in the data set with HepG2 cells was “non-toxic”. Besides, the “CTR1 expression (monomer and truncated forms) in liver” value with CTR1 is “Increased expression”. In addition, the “hepatic copper delivered relative to Cu(gtsm)” value in data set [2] is recorded as “ca. 4 times”. Further, in data set [2] (ip), the “time for hepatic copper stores to clear to basal levels” value was 72 h.

(Values after US11504394B2, “Targeted ionophore-based metal delivery” (The Regents of the University of California, priority 2018, dated 2022).)
